Measured values published in PubChem BioAssay (NCI).
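1) Cells in 96-well plates. 2) Compound, 48 h, 5 concentrations. 3) Linear interpolation between surrounding doses. 4) Unreached endpoint = highest concentration. The concentration for full growth arrest is given as TGI.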

How the values were obtained:
Assay in all cases: NCI tumour cell line growth inhibition, 48 h
[1] = system: PC-3 prostate
[2] = system: SF-295 CNS
[3] = system: SK-OV-3 ovarian
[4] = system: NCI-H460 lung
[5] = system: OVCAR-5 ovarian
[6] = system: SR leukemia
[7] = system: NCI-H226 lung
[8] = system: M14 melanoma
[9] = system: HT29 colon
[10] = system: CCRF-CEM leukemia
[11] = system: ACHN renal
[12] = system: MDA-MB-435
[13] = system: SK-MEL-2 melanoma
[14] = system: HCC-2998 colon
[15] = system: OVCAR-3 ovarian
[16] = system: A549 NSCLC
[17] = system: BT-549 breast
[18] = system: SNB-75 CNS
[19] = system: TK-10 renal
[20] = system: SN12C renal

SMILES | TGI [1] | TGI [2] | TGI [3] | TGI [4] | TGI [5] | TGI [6] | TGI [7] | TGI [8] | TGI [9] | TGI [10] | TGI [11] | TGI [12] | TGI [13] | TGI [14] | TGI [15] | TGI [16] | TGI [17] | TGI [18] | TGI [19] | TGI [20]
C=C1[C@H](OC(=O)C(C)C)[C@]23CC4(O)[C@@H]5[C@@]6(C)CCC[C@]57C([C@@H]2C[C@@]1(O)[C@H](O)[C@@H]73)N4C6 | > 100 µM | > 100 µM | > 100 µM | > 100 µM | > 100 µM | > 100 µM | > 100 µM | > 100 µM | > 100 µM | > 100 µM | > 100 µM | > 100 µM | > 100 µM | 72.3 µM | > 100 µM | > 100 µM | > 100 µM | > 100 µM | > 100 µM | –
CN(C)c1ccc(/C=C(\NC(=O)c2ccccc2)C(=O)NCC(=O)O)cc1 | > 100 µM | > 100 µM | > 100 µM | > 100 µM | > 100 µM | > 100 µM | > 100 µM | > 100 µM | > 100 µM | > 100 µM | > 100 µM | > 100 µM | > 100 µM | > 100 µM | > 100 µM | > 100 µM | > 100 µM | > 100 µM | – | > 100 µM
S=C1Cc2c(-c3ccc(Cl)cc3)cc(-c3ccccc3)nc2-c2ccccc2N1 | 44 µM | 34.1 µM | 25.7 µM | 36.2 µM | 92.9 µM | > 100 µM | 55.7 µM | 49 µM | 21.6 µM | > 100 µM | 27.1 µM | 46 µM | 37.6 µM | > 100 µM | 29.8 µM | 25.5 µM | 35 µM | 17.4 µM | 30.2 µM | 31.3 µM
S=c1nc(Cc2ccc(Cl)cc2)[nH][nH]1 | > 100 µM | > 100 µM | > 100 µM | > 100 µM | > 100 µM | > 100 µM | > 100 µM | > 100 µM | > 100 µM | > 100 µM | > 100 µM | > 100 µM | > 100 µM | > 100 µM | > 100 µM | > 100 µM | > 100 µM | > 100 µM | > 100 µM | > 100 µM
COC(=O)C1=C(C(=O)OC)C(Cc2ccccc2)(OO)OC1=O (stereo not given) | > 100 µM | > 100 µM | 94.4 µM | > 100 µM | 54.2 µM | > 100 µM | 35.9 µM | > 100 µM | 24.2 µM | 6.69 µM | 9.36 µM | > 100 µM | 96.2 µM | > 100 µM | 19.7 µM | > 100 µM | 26.3 µM | 49.6 µM | 15 µM | 98 µM
N#CC(c1ccnc(Cl)n1)c1nc2ccccc2s1 (stereo not given) | 26 µM | 31.5 µM | 16 µM | > 100 µM | > 92.5 µM | 28.7 µM | > 47.4 µM | 20.4 µM | 10.3 µM | 0.928 µM | > 94 µM | > 100 µM | 28.1 µM | 46.8 µM | 26.2 µM | 52.4 µM | > 26 µM | 13 µM | > 60.7 µM | 10.1 µM
O=Cc1c2ccccc2n2ccc3c4ccccc4[nH]c3c12 | > 10 µM | > 10 µM | > 10 µM | > 10 µM | > 10 µM | > 10 µM | > 10 µM | > 10 µM | > 10 µM | > 10 µM | > 10 µM | > 10 µM | > 10 µM | > 10 µM | > 10 µM | > 10 µM | > 10 µM | > 10 µM | > 10 µM | > 10 µM
COC(=O)CC1C(COC(C)=O)OC(n2cc(C)c(=O)[nH]c2=O)C1OC(C)=O (stereo not given) | > 100 µM | > 100 µM | > 100 µM | > 100 µM | > 100 µM | > 100 µM | > 100 µM | > 100 µM | > 100 µM | > 100 µM | > 100 µM | > 100 µM | > 100 µM | > 100 µM | > 100 µM | > 100 µM | > 100 µM | > 100 µM | > 100 µM | > 100 µM
COc1cc(-c2cc(=O)c3c(OC)c(OC)c(OC)cc3o2)c(OC)c(OC)c1OC | > 75 µM | > 75 µM | > 75 µM | > 75 µM | > 75 µM | > 75 µM | > 75 µM | > 75 µM | > 75 µM | > 75 µM | > 75 µM | > 75 µM | > 75 µM | > 75 µM | > 75 µM | > 75 µM | > 75 µM | > 75 µM | > 75 µM | > 75 µM
CC(C)c1nc2cc(C(F)(F)F)ccc2[nH]c1=O | > 100 µM | > 100 µM | > 100 µM | > 100 µM | > 100 µM | > 100 µM | > 100 µM | > 100 µM | > 100 µM | > 100 µM | > 100 µM | > 100 µM | > 100 µM | > 100 µM | > 100 µM | > 100 µM | > 100 µM | > 100 µM | > 100 µM | > 100 µM
Cc1cc(NS(=O)(=O)c2ccc(NC(=O)c3ccc4[nH]c5ccccc5c(=O)c4c3)cc2)no1 | > 100 µM | > 100 µM | > 100 µM | > 100 µM | > 100 µM | > 100 µM | > 100 µM | > 100 µM | > 100 µM | > 100 µM | > 100 µM | > 100 µM | > 100 µM | > 100 µM | > 100 µM | > 100 µM | > 100 µM | > 100 µM | > 100 µM | > 100 µM
COc1ccc(NC(=O)CC(=O)N2N=C(c3ccccc3)C(N=Nc3ccc(S(=O)(=O)CCOS(=O)(=O)O)cc3)C2=O)cc1 (stereo not given) | > 100 µM | > 100 µM | > 100 µM | > 100 µM | – | > 100 µM | > 100 µM | > 100 µM | > 100 µM | > 100 µM | > 100 µM | > 100 µM | > 100 µM | > 100 µM | > 100 µM | > 100 µM | > 100 µM | > 100 µM | > 100 µM | > 100 µM
Cn1c(-c2cccs2)cc(-c2ccccc2)c1-c1cccs1 | > 100 µM | > 100 µM | > 100 µM | > 100 µM | > 100 µM | > 100 µM | > 100 µM | > 100 µM | > 100 µM | > 100 µM | > 100 µM | > 100 µM | > 100 µM | > 100 µM | 47.6 µM | 45.7 µM | > 100 µM | > 100 µM | > 100 µM | > 100 µM
O=C(c1ccco1)N(Cc1ccco1)C(=S)Nc1ccccc1 | > 100 µM | > 84.1 µM | > 100 µM | 99.8 µM | > 100 µM | 13.2 µM | > 100 µM | 28.5 µM | 42.1 µM | 18.7 µM | 40.8 µM | 30.2 µM | 42.9 µM | 98.1 µM | 59.7 µM | > 76.8 µM | 36.3 µM | > 74.9 µM | > 77.4 µM | 45.4 µM
CC(C)(C)n1c(=O)[nH]n(C2NN=Cc3cccc4cccc2c34)c1=O (stereo not given) | > 100 µM | – | > 100 µM | > 100 µM | > 100 µM | 37.4 µM | > 100 µM | > 100 µM | 45.9 µM | 63.6 µM | – | > 100 µM | > 100 µM | > 100 µM | > 100 µM | 63.4 µM | > 100 µM | 85.6 µM | > 100 µM | > 100 µM
